System: 415267-285-R-J2-PDC complex spheroid viability
Test: Anticancer human tumor 415267-285-R-J2-PDC patient-derived breast carcinoma cell line growth inhibition [POLQ]
Conditions: for IC50: curve of first compound; for viability, T/C: stronger effect = lower value
Method in brief: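 Growth inhibition in 3D: complex spheroids (tumor PDC, HUVEC, MSC) treated with POLQ inhibitor combinations; where Cmax unknown, highest tested concentration 10 microM, except SN-38 at 1 microM.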

[1] = second compound 0.0316 µM, first compound 0.0316 µM
[2] = second compound 0.0316 µM, first compound 0.1 µM
[3] = second compound 0.1 µM, first compound 0.0316 µM
[4] = second compound 0.1 µM, first compound 0.1 µM
[5] = second compound 0.316 µM, first compound 0.0316 µM
[6] = second compound 0.316 µM, first compound 0.1 µM
[7] = second compound 1 µM, first compound 0.0316 µM
[8] = second compound 1 µM, first compound 0.1 µM
[9] = second compound 3.16 µM, first compound 0.0316 µM
[10] = second compound 3.16 µM, first compound 0.1 µM
[11] = second compound 10 µM, first compound 0.0316 µM
[12] = second compound 10 µM, first compound 0.1 µM
[13] = second compound 0.0316 µM, first compound 0.316 µM
[14] = second compound 0.0316 µM, first compound 1 µM
[15] = second compound 0.0316 µM, first compound 3.16 µM
[16] = second compound 0.0316 µM, first compound 10 µM
[17] = second compound 0.1 µM, first compound 0.316 µM
[18] = second compound 0.1 µM, first compound 1 µM
[19] = second compound 0.1 µM, first compound 3.16 µM
[20] = second compound 0.1 µM, first compound 10 µM
[21] = second compound 0.316 µM, first compound 0.316 µM
[22] = second compound 0.316 µM, first compound 1 µM
[23] = second compound 0.316 µM, first compound 3.16 µM
[24] = second compound 0.316 µM, first compound 10 µM
[25] = second compound 1 µM, first compound 0.316 µM
[26] = second compound 1 µM, first compound 1 µM
[27] = second compound 1 µM, first compound 3.16 µM
[28] = second compound 1 µM, first compound 10 µM
[29] = second compound 3.16 µM, first compound 0.316 µM
[30] = second compound 3.16 µM, first compound 1 µM
[31] = second compound 3.16 µM, first compound 3.16 µM
[32] = second compound 3.16 µM, first compound 10 µM
[33] = second compound 10 µM, first compound 0.316 µM
[34] = second compound 10 µM, first compound 1 µM
[35] = second compound 10 µM, first compound 3.16 µM
[36] = second compound 10 µM, first compound 10 µM
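Further: spheroids exposed to compounds for one week before readout.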
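Wherever viability, T/C is given: luminescence used as stand-in measure of viable cells; 100% = DMSO vehicle control viability.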

## Cn1ncnc1[C@H]1c2n[nH]c(=O)c3cc(F)cc(c23)N[C@@H]1c1ccc(F)cc1 + Cc1cccc(N(C)C(=O)C2C(O)CCN2c2nc(C)cc(C(F)(F)F)c2C#N)c1
Second compound 0.0316 µM
  IC50: > 100 nM
Second compound 0.1 µM
  IC50: > 100 nM
Second compound 0.316 µM
  IC50: > 100 nM
Second compound 1 µM
  IC50: > 100 nM
Second compound 3.16 µM
  IC50: > 100 nM
Second compound 10 µM
  IC50: > 100 nM
Second compound 0.0316 µM, first compound 0.000316 µM
  viability, T/C: 92.9%
Second compound 0.0316 µM, first compound 0.001 µM
  viability, T/C: 103%
Second compound 0.0316 µM, first compound 0.00316 µM
  viability, T/C: 106%
Second compound 0.0316 µM, first compound 0.01 µM
  viability, T/C: 96.3%
[1]
  viability, T/C: 104%
[2]
  viability, T/C: 96.5%
Second compound 0.1 µM, first compound 0.000316 µM
  viability, T/C: 90.8%
Second compound 0.1 µM, first compound 0.001 µM
  viability, T/C: 93.9%
Second compound 0.1 µM, first compound 0.00316 µM
  viability, T/C: 114%
Second compound 0.1 µM, first compound 0.01 µM
  viability, T/C: 109%
[3]
  viability, T/C: 99.9%
[4]
  viability, T/C: 97.9%
Second compound 0.316 µM, first compound 0.000316 µM
  viability, T/C: 97.1%
Second compound 0.316 µM, first compound 0.001 µM
  viability, T/C: 90.4%
Second compound 0.316 µM, first compound 0.00316 µM
  viability, T/C: 95.7%
Second compound 0.316 µM, first compound 0.01 µM
  viability, T/C: 96.8%
[5]
  viability, T/C: 95.3%
[6]
  viability, T/C: 87.2%
Second compound 1 µM, first compound 0.000316 µM
  viability, T/C: 103%
Second compound 1 µM, first compound 0.001 µM
  viability, T/C: 95.6%
Second compound 1 µM, first compound 0.00316 µM
  viability, T/C: 93.9%
Second compound 1 µM, first compound 0.01 µM
  viability, T/C: 101%
[7]
  viability, T/C: 98.3%
[8]
  viability, T/C: 101%
Second compound 3.16 µM, first compound 0.000316 µM
  viability, T/C: 92.9%
Second compound 3.16 µM, first compound 0.001 µM
  viability, T/C: 97.1%
Second compound 3.16 µM, first compound 0.00316 µM
  viability, T/C: 103%
Second compound 3.16 µM, first compound 0.01 µM
  viability, T/C: 103%
[9]
  viability, T/C: 99.8%
[10]
  viability, T/C: 87.7%
Second compound 10 µM, first compound 0.000316 µM
  viability, T/C: 93.3%
Second compound 10 µM, first compound 0.001 µM
  viability, T/C: 97.9%
Second compound 10 µM, first compound 0.00316 µM
  viability, T/C: 110%
Second compound 10 µM, first compound 0.01 µM
  viability, T/C: 93%
[11]
  viability, T/C: 91%
[12]
  viability, T/C: 90.5%

## CC1COCCN1c1cc(-c2ccnn2C)c2ccnc(-c3ccn[nH]3)c2n1 (stereo unspecified) + Nc1ccc(C#CCN(C(=O)Cc2ncc(C(F)(F)F)cc2C(F)(F)F)c2ccc(F)cc2)nn1
Second compound 0.0316 µM
  IC50: 42.7 nM
Second compound 0.1 µM
  IC50: 40.2 nM
Second compound 0.316 µM
  IC50: 40 nM
Second compound 1 µM
  IC50: 36.9 nM
Second compound 3.16 µM
  IC50: 32.6 nM
Second compound 10 µM
  IC50: < 31.6 nM
[1]
  viability, T/C: 63.7%
[2]
  viability, T/C: 11.2%
[13]
  viability, T/C: 5.02%
[14]
  viability, T/C: 3.87%
[15]
  viability, T/C: 4.17%
[16]
  viability, T/C: 3.9%
[3]
  viability, T/C: 60.3%
[4]
  viability, T/C: 10.8%
[17]
  viability, T/C: 4.23%
[18]
  viability, T/C: 3.18%
[19]
  viability, T/C: 4.26%
[20]
  viability, T/C: 3.58%
[5]
  viability, T/C: 60%
[6]
  viability, T/C: 11.4%
[21]
  viability, T/C: 4.5%
[22]
  viability, T/C: 3.99%
[23]
  viability, T/C: 3.82%
[24]
  viability, T/C: 4%
[7]
  viability, T/C: 56.4%
[8]
  viability, T/C: 8.91%
[25]
  viability, T/C: 4.69%
[26]
  viability, T/C: 3.73%
[27]
  viability, T/C: 3.7%
[28]
  viability, T/C: 3.28%
[9]
  viability, T/C: 51.2%
[10]
  viability, T/C: 9.4%
[29]
  viability, T/C: 5.57%
[30]
  viability, T/C: 3.36%
[31]
  viability, T/C: 3.4%
[32]
  viability, T/C: 4.22%
[11]
  viability, T/C: 42.1%
[12]
  viability, T/C: 10.7%
[33]
  viability, T/C: 5.92%
[34]
  viability, T/C: 3.97%
[35]
  viability, T/C: 3.84%
[36]
  viability, T/C: 4.9%

## COc1ccc([C@@H](O)c2cc(-c3ncnc4cc(N5CCOCC5)ccc34)c(F)cc2Cl)nn1 + Cc1cccc(N(C)C(=O)C2C(O)CCN2c2nc(C)cc(C(F)(F)F)c2C#N)c1
Second compound 0.0316 µM
  IC50: 7650 nM
Second compound 0.1 µM
  IC50: 7730 nM
Second compound 0.316 µM
  IC50: 7440 nM
Second compound 1 µM
  IC50: 7620 nM
Second compound 3.16 µM
  IC50: 7220 nM
Second compound 10 µM
  IC50: 4740 nM
[1]
  viability, T/C: 89.5%
[2]
  viability, T/C: 103%
[13]
  viability, T/C: 98.9%
[14]
  viability, T/C: 102%
[15]
  viability, T/C: 74%
[16]
  viability, T/C: 42.7%
[3]
  viability, T/C: 93.9%
[4]
  viability, T/C: 102%
[17]
  viability, T/C: 110%
[18]
  viability, T/C: 91%
[19]
  viability, T/C: 82.1%
[20]
  viability, T/C: 40.9%
[5]
  viability, T/C: 99.3%
[6]
  viability, T/C: 102%
[21]
  viability, T/C: 98.5%
[22]
  viability, T/C: 100%
[23]
  viability, T/C: 81.3%
[24]
  viability, T/C: 39%
[7]
  viability, T/C: 99%
[8]
  viability, T/C: 91.3%
[25]
  viability, T/C: 92.7%
[26]
  viability, T/C: 93.2%
[27]
  viability, T/C: 69.4%
[28]
  viability, T/C: 44%
[9]
  viability, T/C: 93.1%
[10]
  viability, T/C: 100%
[29]
  viability, T/C: 98%
[30]
  viability, T/C: 88.9%
[31]
  viability, T/C: 75.5%
[32]
  viability, T/C: 39.9%
[11]
  viability, T/C: 101%
[12]
  viability, T/C: 99.3%
[33]
  viability, T/C: 94.5%
[34]
  viability, T/C: 86%
[35]
  viability, T/C: 59.7%
[36]
  viability, T/C: 31.6%

Source: PubChem BioAssay AID1963847 (Molecular Pharmacology Branch, DTP, NCI, 2024)
